Article PMC8815882, “Screening the pandemic response box identified benzimidazole carbamates, Olorofim and ravuconazole as promising drug candidates for the treatment of eumycetoma” (PLoS Neglected Tropical Diseases, 2022)
≈ marks a conversion by molar mass, not a printed value. Where two headings read alike, the source gives them in different places.

Columns and labels:
Assay type in all cases: cell-based, Madurella mycetomatis
[1] = tested on: M. mycetomatis genome strain MM55; experiment: CLSI M38-A2 based in vitro susceptibility screening (XTT or resazurin), growth at fixed concentration; settings: Madurella mycetomatis
M. mycetomatis MM55 = experiment: IC50 determination, 2-fold dilution series 16 to 0.03125 μM; settings: for IC50 / IC90: Madurella mycetomatis
[2] = tested on: ten different M. mycetomatis isolates; experiment: MIC / MIC50 determination (XTT) in ten M. mycetomatis isolates; settings: Madurella mycetomatis
[3] = 25 uM, replicate A, MM55, read-out: Percentage survival at 25um, 25 um A
[4] = 100 uM, mean of replicates, MM55, read-out: Percentage survival at 100um, 100 uM mean
[5] = 100 uM, replicate 1, MM55, read-out: Percentage survival at 100um, 100 uM A
[6] = 100 uM, replicate 2, MM55, read-out: Percentage survival at 100um, 100 uM A
[7] = 100 uM, replicate 3, MM55, read-out: Percentage survival at 100um, 100 uM A
[8] = MM55, mean of replicates, read-out: IC50 mean
[9] = MM55, IC90, mean of replicates, read-out: IC90 mean
[10] = MM55, IC90, replicate 1, read-out: IC90 1 um
[11] = MM55, IC90, replicate 2, read-out: IC90 2 um
[12] = MM55, IC90, replicate 3, read-out: IC90 3 um
[13] = MM55, replicate 1, read-out: IC50 1 um
[14] = MM55, replicate 2, read-out: IC50 2 um
[15] = MM55, replicate 3, read-out: IC50 3 um

Question: Which activity at 25 µM [1, 3] does the source give for `Nc1nc(F)nc2c1ncn2[C@@H]1O[C@H](CO)[C@@H](O)[C@@H]1O` [MMV637413, Fludarabine, reference compound] here?
Answer: The activity at 25 µM was 3.41%.

Question: What about the activity at 100 µM [1, 4] of the same compound?
Answer: The activity at 100 µM was 3.82%.

Question: What about the activity at 100 µM [1, 5] of the same compound?
Answer: Its activity at 100 µM is 1.86%.

Question: What about the activity at 100 µM [1, 6] of the same compound?
Answer: Its activity at 100 µM is 1.98%.

Question: And the activity at 100 µM [1, 7]?
Answer: Its activity at 100 µM is 7.64%.

Question: And the activity at 25 µM ([1]; read-out: Percentage survival at 25um, 25 uM B)?
Answer: The activity at 25 µM was -4.01%.

Question: And the activity at 25 µM ([1]; read-out: Percentage survival at 25um, 25 uM C)?
Answer: Its activity at 25 µM is 6.32%.

Question: What about the activity at 25 µM ([1]; read-out: Percentage survival at 25um, 25 uM mean) of the same compound?
Answer: The activity at 25 µM was 1.91%.

Question: And the “Drug static or cidal” value (M. mycetomatis MM55)?
Answer: Its value is “Static”.

Question: What about the IC50 (M. mycetomatis MM55; [8]) of the same compound?
Answer: Its IC50 is 1.63 µM.

Question: What about the IC90 (M. mycetomatis MM55; [9]) of the same compound?
Answer: The IC90 was 8.89 µM.

Question: What about the IC90 (M. mycetomatis MM55; [10]) of the same compound?
Answer: Its IC90 is 20.6 µM.

Question: And the IC90 (M. mycetomatis MM55; [11])?
Answer: Its IC90 is 1.28 µM.

Question: And the IC90 (M. mycetomatis MM55; [12])?
Answer: The IC90 was 4.8 µM.

Question: And the IC50 (M. mycetomatis MM55; [13])?
Answer: Its IC50 is 1.8 µM.

Question: What about the IC50 (M. mycetomatis MM55; [14]) of the same compound?
Answer: Its IC50 is 0.68 µM.

Question: What about the IC50 (M. mycetomatis MM55; [15]) of the same compound?
Answer: Its IC50 is 2.4 µM.

Question: And the IC50 (M. mycetomatis MM55; Table 2, M. mycetomatis MM55, read-out: IC50)?
Answer: Its IC50 is 1.63 µM.

Question: And the MIC50 ([2]; median MIC over ten M. mycetomatis isolates, no asterisk, read-out: MIC50)?
Answer: Its MIC50 is 16 µM (≈ 4.56 µg/mL).

Question: What about the MIC ([2]; M. mycetomatis isolate CBS247.48, read-out: MIC CBS247.48) of the same compound?
Answer: The MIC was 16 µM (≈ 4.56 µg/mL).

Question: What about the MIC ([2]; M. mycetomatis isolate MM14, read-out: MIC MM14) of the same compound?
Answer: The MIC was 16 µM (≈ 4.56 µg/mL).

Question: What about the MIC ([2]; M. mycetomatis isolate MM45, read-out: MIC MM45) of the same compound?
Answer: Its MIC is over 16 µM.

Question: And the MIC ([2]; M. mycetomatis isolate MM55, read-out: MIC MM55)?
Answer: Its MIC is 16 µM (≈ 4.56 µg/mL).

Question: What about the MIC ([2]; M. mycetomatis isolate P1, read-out: MIC P1) of the same compound?
Answer: The MIC was over 16 µM.

Question: And the MIC ([2]; M. mycetomatis isolate ParijsAl1, read-out: MIC ParijsAl1)?
Answer: The MIC was over 16 µM.

Question: What about the MIC ([2]; M. mycetomatis isolate Peru72012, read-out: MIC Peru72012) of the same compound?
Answer: The MIC was over 16 µM.

Question: What about the MIC ([2]; M. mycetomatis isolate So1, read-out: MIC So1) of the same compound?
Answer: The MIC was 16 µM (≈ 4.56 µg/mL).

Question: And the MIC ([2]; M. mycetomatis isolate i1, read-out: MIC i1)?
Answer: Its MIC is over 16 µM.

Question: And the MIC ([2]; M. mycetomatis isolate i11, read-out: MIC i11)?
Answer: Its MIC is 16 µM (≈ 4.56 µg/mL).

Question: And the MIC50 ([2]; over ten M. mycetomatis isolates, read-out: MIC50 mean)?
Answer: The MIC50 was 16 µM (≈ 4.56 µg/mL).

Question: How did the activity at 25 µM ([1]; 25 uM, mean of replicates, MM55, read-out: Percentage survival at 25um, 25 uM mean) turn out when `COc1cc(NS(=O)(=O)c2ccc(C)cc2)c2ncccc2c1` [MMV098836] was run?
Answer: The activity at 25 µM was 6.7%.

Question: What about the activity at 25 µM [1, 3] of the same compound?
Answer: Its activity at 25 µM is 6.32%.

Question: And the activity at 25 µM ([1]; 25 uM, replicate B, MM55, read-out: Percentage survival at 25um, 25 uM B)?
Answer: The activity at 25 µM was -0.482%.

Question: What about the activity at 25 µM ([1]; 25 uM, replicate C, MM55, read-out: Percentage survival at 25um, 25 uM C) of the same compound?
Answer: Its activity at 25 µM is 14.3%.

Question: What about the activity at 100 µM [1, 4] of the same compound?
Answer: Its activity at 100 µM is 6.45%.

Question: What about the activity at 100 µM [1, 5] of the same compound?
Answer: The activity at 100 µM was 4.22%.

Question: And the activity at 100 µM [1, 6]?
Answer: The activity at 100 µM was 0.942%.

Question: And the activity at 100 µM [1, 7]?
Answer: Its activity at 100 µM is 14.2%.

Question: What about the “Drug static or cidal” value (M. mycetomatis MM55) of the same compound?
Answer: The value was “Static”.

Question: And the IC50 (M. mycetomatis MM55; [8])?
Answer: The IC50 was over 25 µM.

Question: And the IC90 (M. mycetomatis MM55; [9])?
Answer: Its IC90 is over 25 µM.

Question: And the IC90 (M. mycetomatis MM55; [10])?
Answer: Its IC90 is over 25 µM.

Question: And the IC90 (M. mycetomatis MM55; [11])?
Answer: The IC90 was over 25 µM.

Question: What about the IC90 (M. mycetomatis MM55; [12]) of the same compound?
Answer: Its IC90 is over 25 µM.

Question: And the IC50 (M. mycetomatis MM55; [13])?
Answer: The IC50 was over 25 µM.

Question: What about the IC50 (M. mycetomatis MM55; [14]) of the same compound?
Answer: The IC50 was over 25 µM.

Question: What about the IC50 (M. mycetomatis MM55; [15]) of the same compound?
Answer: The IC50 was over 25 µM.

Question: Which activity at 25 µM ([1]; 25 uM, mean, read-out: Percentage survival at 25um, 25 uM mean) does the source give for `NCC(=O)Nc1ccc(-n2nc(C(F)(F)F)cc2-c2ccc3c(ccc4ccccc43)c2)cc1` [MMV1578560] here?
Answer: Its activity at 25 µM is 9.74%.

Question: And the activity at 25 µM ([1]; 25 uM, replicate A, read-out: Percentage survival at 25um, 25 um A)?
Answer: Its activity at 25 µM is 29.4%.

Question: And the activity at 25 µM ([1]; 25 uM, replicate B, read-out: Percentage survival at 25um, 25 uM B)?
Answer: Its activity at 25 µM is -2.28%.

Question: What about the activity at 25 µM ([1]; 25 uM, replicate C, read-out: Percentage survival at 25um, 25 uM C) of the same compound?
Answer: Its activity at 25 µM is 2.05%.

Question: What about the activity at 100 µM ([1]; 100 uM, mean, read-out: Percentage survival at 100um, 100 uM mean) of the same compound?
Answer: Its activity at 100 µM is 3%.

Question: What about the activity at 100 µM ([1]; 100 uM, replicate (first column), read-out: Percentage survival at 100um, 100 uM A) of the same compound?
Answer: Its activity at 100 µM is -6.61%.

Question: What about the activity at 100 µM ([1]; 100 uM, replicate (second column), read-out: Percentage survival at 100um, 100 uM A) of the same compound?
Answer: The activity at 100 µM was 10.2%.

Question: What about the activity at 100 µM ([1]; 100 uM, replicate (third column), read-out: Percentage survival at 100um, 100 uM A) of the same compound?
Answer: The activity at 100 µM was 5.38%.

Question: What about the “Drug static or cidal” value (M. mycetomatis MM55) of the same compound?
Answer: The value was “Static”.

Question: What about the IC90 (M. mycetomatis MM55; MM55, read-out: IC90 mean) of the same compound?
Answer: Its IC90 is over 25 µM.

Question: And the IC50 (M. mycetomatis MM55; MM55, replicate 1, read-out: IC50 1)?
Answer: The IC50 was 17.4 µM.

Question: And the IC90 (M. mycetomatis MM55; MM55, replicate 1, read-out: IC90 1)?
Answer: Its IC90 is over 25 µM.

Question: What about the IC50 (M. mycetomatis MM55; MM55, replicate 2, read-out: IC50 2) of the same compound?
Answer: The IC50 was 22.8 µM.

Question: What about the IC90 (M. mycetomatis MM55; MM55, replicate 2, read-out: IC90 2) of the same compound?
Answer: Its IC90 is over 25 µM.

Question: What about the IC50 (M. mycetomatis MM55; MM55, replicate 3, read-out: IC50 3) of the same compound?
Answer: The IC50 was over 25 µM.

Question: And the IC90 (M. mycetomatis MM55; MM55, replicate 3, read-out: IC90 3)?
Answer: The IC90 was over 25 µM.

Question: What does the source list for `Nc1nnnn1CCOc1c2[nH]c3ccc(Cl)cc3c2cc2c1[nH]c1ccc(Cl)cc12` [MMV1633966]?
Answer: activity at 25 µM ([1]; 25 uM, mean of three, M. mycetomatis MM55, read-out: Percentage survival at 25um, 25 uM mean): 3.05%; activity at 25 µM ([1]; 25 uM, replicate A, M. mycetomatis MM55, read-out: Percentage survival at 25um, 25 um A): 1.67%; activity at 25 µM ([1]; 25 uM, replicate B, M. mycetomatis MM55, read-out: Percentage survival at 25um, 25 uM B): 3.75%; activity at 25 µM ([1]; 25 uM, replicate C, M. mycetomatis MM55, read-out: Percentage survival at 25um, 25 uM C): 3.74%; activity at 100 µM ([1]; 100 uM, mean of three, M. mycetomatis MM55, read-out: Percentage survival at 100um, 100 uM mean): 3.34%; activity at 100 µM ([1]; 100 uM, replicate 1, M. mycetomatis MM55, read-out: Percentage survival at 100um, 100 uM A (first replicate column)): 3.63%; Percent fungal survival at 100 µM ([1]; 100 uM, replicate 2, M. mycetomatis MM55, read-out: Percentage survival at 100um, 100 uM A (second replicate column)): 1.28%; activity at 100 µM ([1]; 100 uM, replicate 3, M. mycetomatis MM55, read-out: Percentage survival at 100um, 100 uM A (third replicate column)): 5.11%; Drug static or cidal (M. mycetomatis MM55; M. mycetomatis): Cidal; IC50 (M. mycetomatis MM55; [8]): 11 µM; IC50 (M. mycetomatis MM55; [13]): 4.23 µM; IC90 (M. mycetomatis MM55; MM55, replicate 1, read-out: IC90 1 um): > 25 µM; IC50 (M. mycetomatis MM55; [14]): 16.5 µM; IC90 (M. mycetomatis MM55; MM55, replicate 2, read-out: IC90 2 um): 24 µM; IC50 (M. mycetomatis MM55; [15]): 12.2 µM; IC90 (M. mycetomatis MM55; MM55, replicate 3, read-out: IC90 3 um): 23.5 µM
